Two compounds from patent US20250090516A1, “DRUG FOR TREATING AF[…] NOVEL CORONAVIRUS INFECTION” (THE JIKEI UNIVERSITY, priority 2022, published 2025) can be followed below.

Common to all, as to format: in vivo, C57BL/6 mice
Experiment [1] concerns gene expression of IL-1β and IL-6 in the brains of S1 mice. Put plainly: RT-qPCR of inflammatory cytokine genes in brains of S1 mice after intracerebroventricular PNU282987. The conditions noted are these: PNU282987 400 nmol/mouse intracerebroventricularly on 7th day; brains collected one hour later; FIG. 14. (Quantitative PCR measures a nucleic acid by following its amplification.)

For experiment [2], the system named is gene expression of zinc finger protein 36 (Zfp36) in the brains of S1 mice. Put plainly: RT-qPCR of Zfp36 in brains of S1 mice after PNU282987. The conditions noted are these: PNU282987 400 nmol/mouse intracerebroventricularly; cDNA of Example 10; FIG. 15. How it is done: Therefore, to the S1 mice and the control mice, on the 7th day after nasal administration of S1/Adv or vector/Adv, PNU282987, which is an agonist specific to the a7 nicotinic acetylcholine receptor, was administered intracerebroventricularly at a dose of 400 nmol/mouse, and the therapeutic effect on brain inflammation in the S1 mice was examined.
One hour after the intracerebroventricular administration of PNU282987, the brains excluding the olfactory bulbs were collected, and RNA was purified with the RNeasy Mini Kit (QIAGEN). The purified RNA was used as a template to synthesize cDNA with the PrimeScript RT reagent Kit (Takara-Bio Inc.). Using the synthesized cDNA, the gene expression of interleukin-1β (IL-1β) and interleukin-6 (IL-6) was analyzed by RT-qPCR. The measurement results of 18S rRNA were used for normalization.
To elucidate the molecular mechanism of the therapeutic effect of PNU282987 on brain inflammation in Example 10, the impact of S1 and […] on the gene expression level of zinc finger protein 36 (Zfp36), which is a host protein with anti-inflammatory effects, was examined. Specifically, using the synthesized cDNA in Example 10, the gene expression of Zfp36 was analyzed by RT-qPCR. The measurement results of 18S rRNA were used for normalization.

In experiment [3] the test system is S1 mice (COVID-19 sequela model animals). Put plainly: 10% weight-loaded forced swimming test (fatigue behavioral test) after donepezil. The conditions noted are these: donepezil 4.0 mg/kg/day via drinking water; 6th day after nasal S1/Adv; without donepezil, S1 mice significantly shorter; FIG. 11.
For experiment [4] the test system is unchanged. The experiment is described as follows: Tail suspension test (depressive disorder-like behavior) after donepezil. The conditions noted are these: donepezil 4.0 mg/kg/day via drinking water; 6th day after nasal S1/Adv; 10 minutes suspension; without donepezil, S1 mice significantly increased; FIG. 12.

Structures are written as SMILES.

For `O=C(N[C@H]1CN2CCC1CC2)c1ccc(Cl)cc1` [PNU282987], in experiment [1], the “increased expression level of IL-1β gene in the brain of S1 mice” value is listed as “suppressed” and the “increased expression level of IL-6 gene in the brain of S1 mice” value is “suppressed”. The “decrease in ZFP36 gene expression in S1 mice” value in experiment [2] is given as “improved”.
Turning to `COc1cc2c(cc1OC)C(=O)C(CC1CCN(Cc3ccccc3)CC1)C2.Cl` (centres unmarked) [donepezil, 2-[(1-benzyl-4-piperidyl)methyl]-5,6-dimethoxyindan-1-one hydrochloride], the “swimming time, S1 mice vs control mice” value in experiment [3] is recorded as “no difference was observed”. In experiment [4], the “immobility time in the tail suspension test, S1 mice vs control mice” value is “significantly decreased”.
